According to patent US20260274829A1, “NEW E3 UBIQUITIN LIGASE LIGAND, PROTEIN DEGRADATION AGENT AND USE THEREOF” (GLUETACS THERAPEUTICS (SHANGHAI) CO., LTD., priority 2023, published 2026):
Where two headings read alike, the source gives them in different places. Each block holds one molecule with its values, some of them ahead of it.

What was measured:
NCI-H1975 (H1975) = assay: CCK-8 tumor cell proliferation IC50, NCI-H1975; settings: Homo sapiens, Table B3, designed based on the EGFR inhibitors, 96 hours, read-out: Inhibitory activity (IC50, nM) on tumor cell proliferation: H1975
Experimental: (§1) The tumor cells used herein were cultured in a cell culture medium listed in table A1 at 37° C. in an incubator with 5% CO2. Prior to experimentation, all cell lines used were correctly identified by STR profiling, and tested negative for mycoplasma contamination using a mycoplasma detection kit through routine screenings.
(§2) IC50 values of the compounds of the present disclosure (including the compounds in Table 1, and compounds of examples) were measured using the Meilun Cell Counting Kit-8 kit from Dalian Meilun Biotech Co., Ltd. Assay details are as follows: tumor cells were seeded in a 96-well plate at a density listed in Table A2. After 24 h, 100 μL of the inoculated cells were treated with 0.5 μL of the compounds of the present disclosure (including the compounds in Tables 1 and 2, and compounds of examples) at 10 different successively decreasing concentrations (starting at the highest concentration of 1 μM; 5-fold serial dilutions). […] The growth inhibition of the compounds of the present disclosure on cells was plotted by Prism Graphpad software, and the IC50 values of the compounds of the present disclosure were calculated therefrom.

MM.1R = assay: CCK-8 tumor cell proliferation IC50, MM.1R; settings: Table B4, designed based on the CDK4/6 inhibitors, 72 hours, read-out: Inhibitory activity (IC50, nM) on tumor cell proliferation: MM.1R
Experimental: as §1, §2

MM.1S (MM1S) = assay: CCK-8 tumor cell proliferation IC50, MM.1S; settings: MM.1S cells, compounds designed based on the IRAK4 inhibitors, read-out: Inhibitory activity (IC50, nM) on tumor cell proliferation, MM.1S
Experimental: as §1
as §2, with “dilutions). After the cells were treated with the compounds of the present disclosure for a period of time, the cell viability detection reagent was added to the culture medium for cell viability assessment according to the instructions provided with the CCK-8 kit.” for “dilutions).”

H1299 = assay: CCK-8 tumor cell proliferation IC50, H1299; set-up: species or system human; settings: compounds designed based on the IRAK4 inhibitors, read-out: Inhibitory activity (IC50, nM) on tumor cell proliferation, H1299
Experimental: as §1
as §2, with “dilutions). After the cells were treated with the compounds of the present disclosure for a period of time, the cell viability detection reagent was added to the culture medium for cell viability assessment according to the instructions provided with the CCK-8 kit.” for “dilutions).”

[1] = system: MGC-803 (MGC80-3, MGC803); assay: CCK-8 tumor cell proliferation IC50, MGC-803; set-up: species or system human; settings: MGC803 cells, compounds designed based on the IRAK4 inhibitors, read-out: Inhibitory activity (IC50, nM) on tumor cell proliferation, MGC803
Experimental: as §1
as §2, with “dilutions). After the cells were treated with the compounds of the present disclosure for a period of time, the cell viability detection reagent was added to the culture medium for cell viability assessment according to the instructions provided with the CCK-8 kit.” for “dilutions).”

LNcap = assay: CCK-8 tumor cell proliferation IC50, LNcap; settings: Homo sapiens, Lncap cells, compounds designed based on the IRAK4 inhibitors, read-out: Inhibitory activity (IC50, nM) on tumor cell proliferation, Lncap
Experimental: as §1, §2

Jurkat = assay: CCK-8 tumor cell proliferation IC50, Jurkat; settings: Homo sapiens, Jurkat cells, compounds designed based on the IRAK4 inhibitors, read-out: Inhibitory activity (IC50, nM) on tumor cell proliferation, Jurkat
Experimental: as §1, §2

CCRF-CEM = assay: CCK-8 tumor cell proliferation IC50, CCRF-CEM; settings: Homo sapiens, CCRF-CEM cells, compounds designed based on the IRAK4 inhibitors, read-out: Inhibitory activity (IC50, nM) on tumor cell proliferation, CCRF-CEM
Experimental: as §1, §2

SR = assay: CCK-8 tumor cell proliferation IC50, SR; settings: Homo sapiens, SR cells, compounds designed based on the IRAK4 inhibitors, read-out: Inhibitory activity (IC50, nM) on tumor cell proliferation, SR
Experimental: as §1, §2

MV-4-11 = assay: CCK-8 tumor cell proliferation IC50, MV-4-11; settings: Homo sapiens, MV4-11, MV-4-11 cells, compounds designed based on the IRAK4 inhibitors, read-out: Inhibitory activity (IC50, nM) on tumor cell proliferation, MV-4-11
Experimental: as §1, §2

GSPT1 = molecular target: T1, GSPT1 (Homo sapiens, UniProt P15170+Q96SW2); assay: Western blot degradation of GSPT1 in hPBMC; assay type: cell-based
T1 construct: endogenous in cells; host or cells: hPBMC
Method in brief: (§3)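 Compound-treated hPBMC lysates were denatured in SDS loading buffer at 95° C for 5 minutes, run on SDS-PAGE and blotted to nitrocellulose. DC50 is the concentration giving band grayscale half that of DMSO controls, from a fitted concentration-response curve; remaining protein is band intensity normalized to an internal control protein.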

WEE1 = molecular target: T2, WEE1 (Homo sapiens, UniProt P30291+Q96SW2); assay: Western blot degradation of WEE1 in hPBMC; assay type: cell-based
T2 construct: endogenous in cells; host or cells: hPBMC
Method in brief: as §3

CK1a = molecular target: T3, CK1a (Homo sapiens, UniProt P48729+Q96SW2); assay: Western blot degradation of CK1a in hPBMC; assay type: cell-based
T3 construct: endogenous in cells; host or cells: hPBMC
Method in brief: as §3

IKZF1 = molecular target: T4, IKZF1 (Homo sapiens, UniProt Q13422+Q96SW2); assay: Western blot degradation of IKZF1 in hPBMC; assay type: cell-based
T4 construct: endogenous in cells; host or cells: hPBMC
Method in brief: as §3

IKZF3 = molecular target: T5, IKZF3 (Homo sapiens, UniProt Q96SW2+Q9UKT9); assay: Western blot degradation of IKZF3 in hPBMC; assay type: cell-based
T5 construct: endogenous in cells; host or cells: hPBMC
Method in brief: as §3

IKZF2 = molecular target: T6, IKZF2 (Homo sapiens, UniProt Q96SW2+Q9UKS7); assay: Western blot degradation of IKZF2 in hPBMC; assay type: cell-based
T6 construct: endogenous in cells; host or cells: hPBMC
Method in brief: as §3

T2 sequence (P30291 whole entry): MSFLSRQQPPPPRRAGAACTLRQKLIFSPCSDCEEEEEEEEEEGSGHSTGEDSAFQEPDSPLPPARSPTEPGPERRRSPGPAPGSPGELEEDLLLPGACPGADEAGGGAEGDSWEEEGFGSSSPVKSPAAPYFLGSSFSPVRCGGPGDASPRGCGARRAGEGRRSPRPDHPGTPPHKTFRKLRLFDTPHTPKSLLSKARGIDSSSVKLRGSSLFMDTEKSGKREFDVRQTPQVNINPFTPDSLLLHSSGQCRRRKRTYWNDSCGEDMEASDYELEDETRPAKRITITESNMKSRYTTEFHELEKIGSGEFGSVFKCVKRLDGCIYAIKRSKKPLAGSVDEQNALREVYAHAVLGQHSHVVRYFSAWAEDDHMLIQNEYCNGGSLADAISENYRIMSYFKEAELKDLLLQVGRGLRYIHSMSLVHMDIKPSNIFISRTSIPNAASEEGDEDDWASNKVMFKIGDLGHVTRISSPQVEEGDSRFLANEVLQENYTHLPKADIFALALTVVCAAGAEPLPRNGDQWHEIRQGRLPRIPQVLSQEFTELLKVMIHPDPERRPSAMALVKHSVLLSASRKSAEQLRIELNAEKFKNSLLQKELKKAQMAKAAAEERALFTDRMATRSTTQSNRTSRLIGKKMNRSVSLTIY
T2 sequence (Q96SW2 whole entry): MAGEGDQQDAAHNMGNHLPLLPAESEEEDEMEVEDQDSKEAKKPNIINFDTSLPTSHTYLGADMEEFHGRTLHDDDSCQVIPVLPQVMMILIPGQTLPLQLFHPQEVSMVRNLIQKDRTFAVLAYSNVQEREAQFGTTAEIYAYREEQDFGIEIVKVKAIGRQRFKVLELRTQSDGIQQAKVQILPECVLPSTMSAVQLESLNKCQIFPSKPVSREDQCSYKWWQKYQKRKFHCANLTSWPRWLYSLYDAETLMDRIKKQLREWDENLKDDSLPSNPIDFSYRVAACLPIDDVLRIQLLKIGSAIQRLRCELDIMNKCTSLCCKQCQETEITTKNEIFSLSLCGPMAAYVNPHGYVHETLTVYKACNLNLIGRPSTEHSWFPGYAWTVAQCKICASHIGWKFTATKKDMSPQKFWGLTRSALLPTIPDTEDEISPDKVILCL
T2 sequence (Q16531 whole entry partner): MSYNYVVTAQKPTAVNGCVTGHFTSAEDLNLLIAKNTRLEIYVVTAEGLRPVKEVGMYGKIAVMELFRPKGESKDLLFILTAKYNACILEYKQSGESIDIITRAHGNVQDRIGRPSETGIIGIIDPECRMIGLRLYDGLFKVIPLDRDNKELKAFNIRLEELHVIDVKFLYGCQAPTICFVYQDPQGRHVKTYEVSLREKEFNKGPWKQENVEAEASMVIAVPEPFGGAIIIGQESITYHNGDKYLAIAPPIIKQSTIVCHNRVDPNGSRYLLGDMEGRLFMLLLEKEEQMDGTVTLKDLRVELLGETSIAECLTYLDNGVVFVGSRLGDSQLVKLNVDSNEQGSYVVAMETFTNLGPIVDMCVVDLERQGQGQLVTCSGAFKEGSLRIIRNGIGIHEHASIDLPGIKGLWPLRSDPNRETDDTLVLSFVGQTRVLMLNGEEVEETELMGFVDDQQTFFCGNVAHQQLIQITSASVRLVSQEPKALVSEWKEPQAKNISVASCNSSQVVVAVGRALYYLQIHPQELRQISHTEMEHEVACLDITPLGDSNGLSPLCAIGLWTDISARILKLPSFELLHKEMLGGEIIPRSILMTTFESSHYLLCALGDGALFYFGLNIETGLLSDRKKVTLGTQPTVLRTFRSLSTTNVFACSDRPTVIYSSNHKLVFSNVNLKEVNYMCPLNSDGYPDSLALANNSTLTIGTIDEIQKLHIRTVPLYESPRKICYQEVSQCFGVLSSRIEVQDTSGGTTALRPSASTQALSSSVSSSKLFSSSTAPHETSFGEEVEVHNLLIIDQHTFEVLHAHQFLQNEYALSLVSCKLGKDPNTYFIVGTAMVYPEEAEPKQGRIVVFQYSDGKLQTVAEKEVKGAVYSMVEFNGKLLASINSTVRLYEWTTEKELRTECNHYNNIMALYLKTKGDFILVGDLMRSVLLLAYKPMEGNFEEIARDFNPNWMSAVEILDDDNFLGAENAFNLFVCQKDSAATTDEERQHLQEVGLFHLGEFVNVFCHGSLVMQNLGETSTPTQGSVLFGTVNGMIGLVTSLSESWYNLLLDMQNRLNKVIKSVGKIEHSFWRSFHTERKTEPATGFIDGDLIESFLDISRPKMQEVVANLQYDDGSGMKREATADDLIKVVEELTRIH
T3 sequence (P48729 whole entry): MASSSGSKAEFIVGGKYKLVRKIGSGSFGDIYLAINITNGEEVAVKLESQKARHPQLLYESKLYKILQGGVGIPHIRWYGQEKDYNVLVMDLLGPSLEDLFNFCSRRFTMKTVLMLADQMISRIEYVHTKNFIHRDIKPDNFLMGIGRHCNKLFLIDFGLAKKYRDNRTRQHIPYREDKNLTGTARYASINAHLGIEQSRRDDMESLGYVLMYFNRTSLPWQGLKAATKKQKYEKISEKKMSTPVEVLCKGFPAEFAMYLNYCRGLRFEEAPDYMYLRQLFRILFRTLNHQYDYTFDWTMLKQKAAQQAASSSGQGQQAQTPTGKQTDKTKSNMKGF
T3 sequence (Q96SW2 whole entry): as the sequence (Q96SW2 whole entry) above
T3 sequence (Q16531 whole entry partner): as the sequence (Q16531 whole entry partner) above
T6 sequence (Q9UKS7 whole entry): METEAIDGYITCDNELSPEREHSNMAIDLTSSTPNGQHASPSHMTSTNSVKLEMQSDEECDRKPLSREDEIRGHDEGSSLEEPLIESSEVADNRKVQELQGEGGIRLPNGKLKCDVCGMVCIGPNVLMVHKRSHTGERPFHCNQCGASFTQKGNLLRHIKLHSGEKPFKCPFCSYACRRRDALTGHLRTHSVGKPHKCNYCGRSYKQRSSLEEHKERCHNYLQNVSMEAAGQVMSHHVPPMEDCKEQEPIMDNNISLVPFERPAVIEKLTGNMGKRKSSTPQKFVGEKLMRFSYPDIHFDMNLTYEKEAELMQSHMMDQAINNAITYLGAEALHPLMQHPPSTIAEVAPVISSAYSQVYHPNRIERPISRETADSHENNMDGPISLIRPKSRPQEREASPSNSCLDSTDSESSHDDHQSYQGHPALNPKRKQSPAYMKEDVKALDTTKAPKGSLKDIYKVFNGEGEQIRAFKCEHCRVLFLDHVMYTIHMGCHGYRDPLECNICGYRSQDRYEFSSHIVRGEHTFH
T6 sequence (Q96SW2 whole entry): as the sequence (Q96SW2 whole entry) above
T6 sequence (Q16531 whole entry partner): as the sequence (Q16531 whole entry partner) above
T5 sequence (Q9UKT9 whole entry): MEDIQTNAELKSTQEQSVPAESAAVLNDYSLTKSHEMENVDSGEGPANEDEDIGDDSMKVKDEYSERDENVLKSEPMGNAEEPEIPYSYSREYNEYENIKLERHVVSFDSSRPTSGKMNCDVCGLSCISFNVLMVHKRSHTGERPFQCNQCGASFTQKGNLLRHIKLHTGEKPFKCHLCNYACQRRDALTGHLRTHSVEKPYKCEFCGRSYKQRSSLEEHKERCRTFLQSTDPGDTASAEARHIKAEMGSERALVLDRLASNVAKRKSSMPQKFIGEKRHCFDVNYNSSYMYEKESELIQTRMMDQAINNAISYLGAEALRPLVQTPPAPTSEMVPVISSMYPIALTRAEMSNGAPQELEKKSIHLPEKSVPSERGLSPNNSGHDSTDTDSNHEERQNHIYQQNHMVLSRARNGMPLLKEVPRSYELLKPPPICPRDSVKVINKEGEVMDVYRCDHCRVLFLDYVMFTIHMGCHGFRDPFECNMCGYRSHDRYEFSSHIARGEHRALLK
T5 sequence (Q96SW2 whole entry): as the sequence (Q96SW2 whole entry) above
T5 sequence (Q16531 whole entry partner): as the sequence (Q16531 whole entry partner) above
T4 sequence (Q13422 whole entry): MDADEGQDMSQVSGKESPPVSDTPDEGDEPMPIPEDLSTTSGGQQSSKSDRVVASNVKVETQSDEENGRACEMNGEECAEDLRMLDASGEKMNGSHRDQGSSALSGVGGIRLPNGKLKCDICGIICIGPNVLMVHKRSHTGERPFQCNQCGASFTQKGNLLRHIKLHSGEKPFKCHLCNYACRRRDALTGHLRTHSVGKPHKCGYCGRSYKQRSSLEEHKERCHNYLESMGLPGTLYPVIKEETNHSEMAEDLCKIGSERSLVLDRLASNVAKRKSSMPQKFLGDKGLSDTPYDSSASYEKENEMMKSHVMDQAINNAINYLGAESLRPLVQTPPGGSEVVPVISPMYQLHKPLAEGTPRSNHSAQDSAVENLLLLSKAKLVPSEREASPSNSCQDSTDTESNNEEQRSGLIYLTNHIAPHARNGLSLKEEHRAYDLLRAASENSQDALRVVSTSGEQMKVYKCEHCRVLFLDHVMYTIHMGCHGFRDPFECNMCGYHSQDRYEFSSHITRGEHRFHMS
T4 sequence (Q96SW2 whole entry): as the sequence (Q96SW2 whole entry) above
T4 sequence (Q16531 whole entry partner): as the sequence (Q16531 whole entry partner) above

IC50 (MM.1S (MM1S)): > 10000 nM | IC50 (H1299; H1299 cells): 5000 to 10000 nM | IC50 [1]: 5000 to 10000 nM
Structure (SMILES): CC[C@@H]1[C@H](F)C(=O)N[C@@H]1COc1nccc2cc(C(N)=O)c(OC)cc12 [PF06650833, reference compound]

IC50 (MM.1S (MM1S)): 500 to 1000 nM
Structure (SMILES): O=C1CCC(Nc2cccc(CN3CCC(N4CCN(c5ccc6c(c5)nc(NC(=O)c5cccc(C(F)(F)F)c5)n6[C@H]5CC[C@@H](CO)CC5)CC4)CC3)c2)C(=O)N1 (some centres unmarked) [GT-05023, N-(5-(4-(1-(3-((2,6-dioxopiperidin-3-yl)amino)benzyl)piperidin-4-yl)piperazin-1-yl)-1-((1s,4s)-4-(hydroxymethyl)cyclohexyl)-1H-benzo[d]imidazol-2-yl)-3-(trifluoromethyl)benzamide]

IC50 (MM.1S (MM1S)): 50 to 100 nM | IC50 (H1299; H1299 cells): 100 to 500 nM | IC50 [1]: 100 to 500 nM
Structure (SMILES): O=C1CCN(c2ccc(CN3CCN(c4ccc5c(c4)nc(NC(=O)c4cccc(C(F)(F)F)c4)n5[C@H]4CC[C@@H](CO)CC4)CC3)cc2)C(=O)N1 [GT-04982, N-(5-(4-(4-(2,4-dioxotetrahydropyrimidin-1(2H)-yl)benzyl)piperazin-1-yl)-1-((1s,4s)-4-(hydroxymethyl)cyclohexyl)-1H-benzo[d]imidazol-2-yl)-3-(trifluoromethyl)benzamide]

IC50 (MM.1S (MM1S)): 100 to 500 nM | IC50 (H1299; H1299 cells): 100 to 500 nM | IC50 [1]: 100 to 500 nM
Structure (SMILES): O=C1CCN(c2ccc(CN3CCN(c4ccc5c(c4)nc(NC(=O)c4cccc(C(F)(F)F)c4)n5[C@H]4CC[C@@H](CO)CC4)CC3)nc2)C(=O)N1 [GT-04986, N-(5-(4-((5-(2,4-dioxotetrahydropyrimidin-1(2H)-yl)pyridin-2-yl)methyl)piperazin-1-yl)-1-((1s,4s)-4-(hydroxymethyl)cyclohexyl)-1H-benzo[d]imidazol-2-yl)-3-(trifluoromethyl)benzamide]

IC50 (MM.1S (MM1S)): 100 to 500 nM | IC50 (H1299; H1299 cells): 500 to 1000 nM | IC50 [1]: 500 to 1000 nM
Structure (SMILES): O=C1CCC(c2ccc(CN3CCN(c4ccc5c(c4)nc(NC(=O)c4cccc(C(F)(F)F)c4)n5C4CCC(CO)CC4)CC3)cc2)C(=O)N1 (centres unmarked) [GT-04981, N-(5-(4-(4-(2,6-dioxopiperidin-3-yl)benzyl)piperazin-1-yl)-1-((1s,4s)-4-(hydroxymethyl)cyclohexyl)-1H-benzo[d]imidazol-2-yl)-3-(trifluoromethyl)benzamide]

Further lines, the molecule ahead of its results:

Structure (SMILES): O=C1CCC(Nc2cccc(CN3C4CCC3CN(c3ccc(-c5cc(F)c6c(c5)C(=O)N(C(C(=O)Nc5nccs5)c5ncn7c5CCC7)C6)cc3)C4)c2)C(=O)N1 (centres unmarked) [GT-06257, 2-(6,7-dihydro-5H-pyrrolo[1,2-c]imidazol-1-yl)-2-(6-(4-(8-(3-((2,6-dioxopiperidin-3-yl)amino)benzyl)-3,8-diazabicyclo[3.2.1]octan-3-yl)phenyl)-4-fluoro-1-oxoisoindolin-2-yl)-N-(thiazol-2-yl)acetamide]
IC50 (NCI-H1975 (H1975)): 1 to 10 nM

Structure (SMILES): CCN1CCN(Cc2ccc(Nc3ncc(F)c(-c4cc(F)c5nc(C)n(C(C)C)c5c4)n3)nc2)CC1 [abemaciclib]
IC50 (MM.1R): 1000 to 5000 nM

Structure (SMILES): O=C1CCN(c2ccc(CN3C4CCC3CN(c3ccc(-c5cc(F)c6c(c5)C(=O)N(C(C(=O)Nc5nccs5)c5ncn7c5CCC7)C6)cc3)C4)cn2)C(=O)N1 (centres unmarked) [GT-06256, 2-(6,7-dihydro-5H-pyrrolo[1,2-c]imidazol-1-yl)-2-(6-(4-(8-((6-(2,4-dioxotetrahydropyrimidin-1(2H)-yl)pyridin-3-yl)methyl)-3,8-diazabicyclo[3.2.1]octan-3-yl)phenyl)-4-fluoro-1-oxoisoindolin-2-yl)-N-(thiazol-2-yl)acetamide]
IC50 (NCI-H1975 (H1975)): 1 to 10 nM

Structure (SMILES): O=C1CCC(Nc2cccc(CN3CCN(Cc4ccc5c(c4)nc(NC(=O)c4cccc(C(F)(F)F)c4)n5C4CCC(CO)CC4)CC3)c2)C(=O)N1 (centres unmarked) [GT-04976, N-(5-((4-(3-((2,6-dioxopiperidin-3-yl)amino)benzyl)piperazin-1-yl)methyl)-1-((1s,4s)-4-(hydroxymethyl)cyclohexyl)-1H-benzo[d]imidazol-2-yl)-3-(trifluoromethyl)benzamide]
IC50 (MM.1S (MM1S)): 100 to 500 nM

Structure (SMILES): Cc1cc(-c2nc(C(=O)Nc3cc4oc(N5CCOCC5)nc4nc3N3CC[C@@H](O)C3)co2)ccn1 [emavusertib]
IC50 (LNcap): > 10000 nM | IC50 (Jurkat): > 10000 nM | IC50 (CCRF-CEM): > 10000 nM | IC50 (H1299; Homo sapiens, NCI-H1299, H1299 cells): > 10000 nM | IC50 (SR): > 10000 nM | IC50 (MV-4-11): 50 to 100 nM

Structure (SMILES): O=Cc1ccncc1NC1CCC(=O)NC1=O (centres unmarked) [GT-07804, 3-((2,6-dioxopiperidin-3-yl)amino)isonicotinaldehyde]
Degradation of substrate protein GSPT1 (substrate protein remaining %) (GSPT1): B (B is defined as substrate protein remaining % > 80%) | Degradation of substrate protein WEE1 (substrate protein remaining %) (WEE1): B (B is defined as substrate protein remaining % > 80%) | Degradation of substrate protein CK1a (substrate protein remaining %) (CK1a): B (B is defined as substrate protein remaining % > 80%) | Degradation of substrate protein IKZF1 (substrate protein remaining %) (IKZF1): B (B is defined as substrate protein remaining % > 80%) | Degradation of substrate protein IKZF3 (substrate protein remaining %) (IKZF3): A (A is defined as 0% ≤ substrate protein remaining % ≤ 80%) | Degradation of substrate protein IKZF2 (substrate protein remaining %) (IKZF2): A (A is defined as 0% ≤ substrate protein remaining % ≤ 80%)
